Entries after “also recorded” stand apart in the source; their conditions may differ.
Tests used:
[1] = tested on: CHO cells stably expressing Gaussia luciferase (GLuc); test: Secreted Gaussia luciferase assay in CHO cells stably expressing GLuc transfected with Rheb vectors; assay type: cell-based; settings: for increase in secreted Gaussia luciferase: day 7, normalised to cell number
Description: CHO cells stably expressing Firefly luciferase (FLuc) or Gaussia luciferase (GLuc) as indicated were transfected using Lipofectamine3000 with an empty vector (EV) or vectors for Rheb WT, S21L, T23M, G29S, Y35N or E40K and also treated with the mTOR inhibitor AZD8055 at 100 nM for the total duration where indicated. Fluc and GLuc assays were performed 24 h after transfection and then every 48 h for 7 days. Assay results are normalised to cell number. GLuc-CHO cells were harvested for SDS-PAGE and Western Blot analysis at the 168 h (7-day) time-point to probe for intracellular GLuc, FLAG (Rheb) and actin, as ‘loading control’. […] However, Rheb-T23M and —Y35N caused a significant 3-fold increase in secreted Gaussia luciferase that was also seen with E40K and was prevented by treatment with AZD8055 (C/D [histogram of day 7]). In (E), secreted GLuc was monitored every 4 h from 24 h to 60 h showing the rate of secretion of GLuc was higher when Rheb-T23M is expressed as compared to Rheb-Y35N. The pattern for intracellular levels of Gaussia luciferase (assessed by immunoblot of cell lysates harvested at 7 days post transfection) more closely resemble those intracellular firefly luciferase (F) with little change compared to either the empty vector or WT while still retaining heightened mTORC1 signalling as indicated by the elevated levels of P-S6K1 Thr389 compared to cells transfected with the empty vector. CHO cells expressing Rheb-T23M, Y35N and E40K show a small increases in general protein synthesis but a marked increase in secreted Gaussia protein that is blocked by mTOR inhibition. Thus, Rheb[T23M] selectively promotes production of the secreted protein GLuc in a process that requires mTOR signalling.
Constructs were introduced into CHO cells using Lipofectamine3000 (Life Technologies) according to the manufacturer's protocol. Cell lines stably expressing secreted luciferase were generated by cloning the GLuc gene with a signal sequence from Nanolight Technology (see paper sent with this version) and cloning this into the pcDNA4 commercially available vector where gene expression was driven by a CMV promoter. The subsequent vectors were transfected, using lipofectamine, into CHO-S freestyle suspension cells and grown in CD-CHO media and then stable transfectant pools selected by addition of zeocin antibiotic. Once stable pools had emerged these were subjected to limited dilution cloning to obtain a range of pools with different secreted GLuc expression levels. Methods as are described, for example, in Josse et al. (2009) Biotechnology and Bioengineering 105: 556-566.
For Gaussia luciferase, we employed the BioLux® Gaussia Luciferase Assay Kit (New England Biolabs (NEB), Cat. No. E3300S) and for firefly luciferase the Luciferase Assay System from Promega (Cat. No. E1500). Cells were grown in Ham's F12 medium F12 nutrient mix, Ham's (Life Technologies, Cat. No. 11765054).
CHO cells stably expressing Firefly luciferase (FLuc; which is cytoplasmic) or Gaussia luciferase (GLuc; which is secreted) as indicated were transfected using Lipofectamine3000 with an empty vector (EV) or vectors for Rheb WT, S21L, T23M, G29S, Y35N or E40K and treated with the mTOR inhibitor AZD8055 at 100 nM for the total duration where appropriate. Fluc and GLuc assays were performed at 24 h after transfection and then every 48 h for 7 days. Assay results were normalised to cell number. […]

[2] = tested on: CHO cells stably expressing Firefly luciferase (FLuc); test: Firefly luciferase assay in CHO cells stably expressing FLuc transfected with Rheb vectors; assay type: cell-based; settings: day 7, normalised to cell number
Description: CHO cells stably expressing Firefly luciferase (FLuc) or Gaussia luciferase (GLuc) as indicated were transfected using Lipofectamine3000 with an empty vector (EV) or vectors for Rheb WT, S21L, T23M, G29S, Y35N or E40K and also treated with the mTOR inhibitor AZD8055 at 100 nM for the total duration where indicated. Fluc and GLuc assays were performed 24 h after transfection and then every 48 h for 7 days. Assay results are normalised to cell number. GLuc-CHO cells were harvested for SDS-PAGE and Western Blot analysis at the 168 h (7-day) time-point to probe for intracellular GLuc, FLAG (Rheb) and actin, as ‘loading control’. […] In (E), secreted GLuc was monitored every 4 h from 24 h to 60 h showing the rate of secretion of GLuc was higher when Rheb-T23M is expressed as compared to Rheb-Y35N. The pattern for intracellular levels of Gaussia luciferase (assessed by immunoblot of cell lysates harvested at 7 days post transfection) more closely resemble those intracellular firefly luciferase (F) with little change compared to either the empty vector or WT while still retaining heightened mTORC1 signalling as indicated by the elevated levels of P-S6K1 Thr389 compared to cells transfected with the empty vector. […]

[3] = tested on: mTORC1 localisation at the lysosome; test: Immunofluorescence of mTOR and LAMP1 colocalisation in serum-starved transfected CHO cells; assay type: cell-based; settings: medium lacking FBS for 16 h
Description: 24 h after transfection cells were transferred to medium lacking FBS for 16 hours. Cells were fixed with 4% paraformaldehyde, permeabilized with 0.05% Triton X-100, blocked with 10% normal donkey serum before LAMP1 and then anti-mTOR antibodies were applied overnight. Alexa Fluor™ 488 and 594-labelled secondary antibodies were applied before cells were mounted and stained with DAPI.
24 h after transfection cells were transferred to medium lacking FBS for 16 h. Cells were fixed with 4% paraformaldehyde, permeabilized with 0.05% Triton X-100, blocked with 10% normal donkey serum before LAMP1 and mTOR antibodies were applied overnight. Alexa Fluor™ 488 and 594 secondary antibodies were applied before cells were mounted and stained with DAPI.

mTORC1 signalling = mTORC1 signalling (Western blot, S6K1 and rpS6) in transfected CHO cells starved of serum and amino acids, with or without TSC1/2 co-transfection; assay type: cell-based; settings: for mTORC1 signalling in the absence of upstream activation: no serum 16 h, D-PBS 1 h, compared to empty vector and Rheb-WT; for mTORC1 signalling when co-transfected with TSC1/TSC2: no serum and amino acids
Description: (§1) GTP. GST-Rheb bound to GDP or GTP was pulled down using glutathione beads and the nucleotides were then separated by thin-layer chromatography and visualized by phosphorimager. The positions of GDP and GTP are shown (FIG. 1A). […] FIGS. 1C-1D: CHO cells were co-transfected using Lipofectamine 3000 with vectors encoding wildtype (WT) Rheb or the indicated mutants and TSC1/2 as indicated. 36 h after transfection, cells were transferred to Ham's F12 media lacking FBS for 16 h. Cells were the transferred to Dulbecco's phosphate-buffered saline (D-PBS, which lacks amino acids) for 1 h before cell lysates were harvested for SDS-PAGE and Western Blotting analysis using the indicated antibodies.

TSC1/TSC2 = test: GAP assay: TSC1/TSC2-promoted hydrolysis of GTP bound to recombinant GST-Rheb; assay type: biochemical; settings: FLAG-TSC1, FLAG-TSC2, [α-32P]GTP, n=3
Source text: as §1, with “FIGS. 1A-1B: Recombinant GST-Rheb proteins were subjected to GAP assay in the presence of FLAG-TSC1, FLAG-TSC2 and [α-^32P] GTP.” for “GTP.”, “antibodies. […] This effect is consistent with lack of sensitivity of the mutant Rhebs to TSC1/TSC2. Thus the Rheb mutants S21L, T23M, G29S, Y35N and E40K promote mTORC1 signalling in the absence of upstream activation due to insensitivity to the GAP activity of the TSC complex.” for “antibodies.”
A) Recombinant GST-Rheb proteins were subjected to GTPase assays in the presence of FLAG-TSC1, FLAG-TSC2 and [α-^32P]GTP. Nucleotide-bound GST-Rheb was purified from the reaction mixture using 20 μl glutathione bead slurry. Radioactive GDP and GTP were separated by thin-layer chromatography and visualized by phosphorimager.

[4] = tested on: mTORC1 and ER Stress activation markers; test: Western blot for mTORC1 and ER stress activation markers in ExpiCHO cells stably expressing Rheb variants; assay type: cell-based
ExpiCHO-S™ cells = test: Rabbit IgG secretion by ExpiCHO-S cells stably expressing Rheb variants (Easy-Titer Rabbit IgG Assay); assay type: cell-based; settings: single replicate; compared to Rheb-WT or Rheb-Y35N
Description: Materials and Methods: ExpiCHO-S™ cells were purchased from ThermoFischer Scientific and cultured in ExpiCHO™ Expression Medium at 37° C. at 8% CO2. […] Transfected cells were grown in 600 μg/mL […] for 6 weeks. Surviving cells were plated as single cells in a 96-well plate and monoclonal colonies selected for FLAG-Rheb expression.
Rabbit IgG secretion was determined using the ExpiCHO™ Expression system according to the manufacturer's instructions. Briefly, ExpiCHO™ cells expressing either endogenous Rheb or stably expressing exogenous Rheb were seeded at 6×10^6 cells/mL in 25 mL of ExpiCHO™ Expression Medium and transfected with 20 μg of a pcDNA3.1 vector encoding heavy and light chains of Rabbit IgG at a 1:2 ratio of heavy chain:light chain using ExpiFectamine™ CHO Reagent. 24 hours after transfection, cells were feed with ExpiCHO™ Feed and ExpiFectamine™ CHO Enhancer and transferred to 32° C., 5% CO2. Cells were allowed to grow for 10 days with 100 μL samples taken every day. After 10 days, Cells were pelleted by centrifugation at 4000×g for 30 minutes at 4° C. and the supernatant filtered through a […] PVFD filter and collected. IgG yield was determined using Easy-Titer™ Rabbit IgG Assay kit and calculated from a standard curve.

Row | Compound | mTORC1 signalling in the absence of upstream activation (mTORC1 signalling) | mTORC1 signalling when co-transfected with TSC1/TSC2 (mTORC1 signalling) | hydrolysis of GTP bound to Rheb promoted by TSC1/TSC2 (TSC1/TSC2) | other results
1 | Rheb-Y35N: human Rheb protein with an asparagine variant at residue 35 (Y35N), SEQ ID NO. 4 | increased mTORC1 signalling over both the empty vector and Rheb-WT | no reduction | completely unable to promote hydrolysis of GTP; also recorded: did not promote hydrolysis of GTP | increase in secreted Gaussia luciferase [1]: 3 fold; increase in synthesis of intracellular Firefly luciferase compared to the empty vector [2]: ca. 1.2 fold; mTOR localisation to the lysosome (overlap with LAMP1) [3]: promote localisation; also recorded: strong mTOR localisation on lysosomes
2 | Q64L: Rheb mutant Q64L tested in the GAP assay [Rheb Q64L] | – | – | partial resistance; also recorded: a small degree of hydrolysis | –
3 | COc1ccc(-c2ccc3c(N4CCOC[C@@H]4C)nc(N4CCOC[C@@H]4C)nc3n2)cc1CO [AZD8055, reference compound] | – | – | – | effect on the Rheb mutant-induced increase in secreted Gaussia luciferase ([1]; AZD8055 at 100 nM for the total duration): prevented
4 | G29S: Rheb mutant G29S created by site-directed mutagenesis of human Rheb [Rheb G29S] | increased mTORC1 signalling over both the empty vector and Rheb-WT | no reduction | partial resistance; also recorded: a small degree of hydrolysis | –
5 | Rheb-E40K: human Rheb protein with a lysine variant at residue 40 (E40K), SEQ ID NO. 5 | increased mTORC1 signalling over both the empty vector and Rheb-WT | no reduction | completely unable to promote hydrolysis of GTP; also recorded: did not promote hydrolysis of GTP | increase in secreted Gaussia luciferase [1]: 3 fold; ER stress response (Western blot markers) [4]: mild ER stress response; mTORC1 signalling (Western blot markers) [4]: increased mTORC1 signalling; mTOR localisation to the lysosome (overlap with LAMP1) [3]: promote localisation; also recorded: mTORC1 localisation at the lysosome is maintained; rate of IgG secretion determined daily over 10 days (ExpiCHO-S™ cells): maintain a constant rate of IgG secretion over a longer period
6 | G63A: Rheb mutant G63A tested in the GAP assay [Rheb G63A] | – | – | completely unable to promote hydrolysis of GTP; also recorded: did not promote hydrolysis of GTP | –
7 | Rheb-S21L: Rheb mutant S21L created by site-directed mutagenesis of human Rheb | increased mTORC1 signalling over both the empty vector and Rheb-WT | no reduction | completely unable to promote hydrolysis of GTP; also recorded: did not promote hydrolysis of GTP | –

Reference: patent US12492232B2, “Methods for producing proteins” (South Australian Health and Medical Research Institute …, priority 2018, dated 2025)
